The record followed here is publication PMC6434083, “Identification and characterization of two types of amino acid-regulated acetyltransferases in actinobacteria” (Bioscience Reports, 2017).

Data set [1] deals with T1, SvePatA (Streptomyces venezuelae, UniProt F2RA54).
T1 construct: gene SVEN_0867; gene amplified from genomic DNA, pET-28a, E. coli BL21-DE3, purified; ACT-GNAT domains
T1 sequence (F2RA54 1-488): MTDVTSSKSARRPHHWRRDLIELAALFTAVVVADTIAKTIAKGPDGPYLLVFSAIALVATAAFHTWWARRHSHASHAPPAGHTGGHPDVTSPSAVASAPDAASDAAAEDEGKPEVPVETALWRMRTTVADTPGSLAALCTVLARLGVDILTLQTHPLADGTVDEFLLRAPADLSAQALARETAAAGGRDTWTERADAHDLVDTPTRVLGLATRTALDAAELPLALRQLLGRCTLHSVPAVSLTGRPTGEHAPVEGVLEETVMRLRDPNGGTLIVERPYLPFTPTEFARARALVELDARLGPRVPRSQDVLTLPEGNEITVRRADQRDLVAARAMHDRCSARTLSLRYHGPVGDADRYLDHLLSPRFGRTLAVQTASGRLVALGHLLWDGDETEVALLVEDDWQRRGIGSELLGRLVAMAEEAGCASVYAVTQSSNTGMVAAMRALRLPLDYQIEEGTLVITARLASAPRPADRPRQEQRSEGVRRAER
The experiment in a line: coupled NADH assay, initial rate; CD shift also seen with […] Asn. The class given is biochemical. Particulars: allosteric activator; co-substrates Ac-CoA and SveAcs.

In data set [2] the target is T2, SvePatA (Streptomyces venezuelae, UniProt F2RA54, K112A).
T2 construct: gene SVEN_0867; gene amplified from genomic DNA, pET-28a, E. coli BL21-DE3, purified; ACT-GNAT domains
The data set is described as follows: acetyltransferase activity with Asn. Particulars: allosteric; co-substrates Ac-CoA and SveAcs. The class given is biochemical.

A further data set concerns the target T3, AmiPatA (Actinosynnema mirum, UniProt C6WC99).
T3 construct: gene Amir_5672; gene amplified from genomic DNA, pET-28a, E. coli BL21-DE3, purified; ACT-GNAT domains
T3 sequence (C6WC99 1-372): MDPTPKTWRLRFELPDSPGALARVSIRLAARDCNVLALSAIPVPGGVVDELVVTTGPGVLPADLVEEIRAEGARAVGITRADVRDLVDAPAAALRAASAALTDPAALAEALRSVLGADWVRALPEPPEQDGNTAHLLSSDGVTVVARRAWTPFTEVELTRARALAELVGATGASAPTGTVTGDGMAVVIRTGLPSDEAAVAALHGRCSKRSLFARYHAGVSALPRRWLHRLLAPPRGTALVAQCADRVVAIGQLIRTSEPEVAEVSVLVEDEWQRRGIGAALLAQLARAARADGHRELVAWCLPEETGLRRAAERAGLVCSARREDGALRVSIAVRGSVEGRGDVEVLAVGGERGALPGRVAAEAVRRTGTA
The experiment in a line: coupled NADH assay, initial rate; CD shift also seen. The class given is biochemical. The following applies: allosteric activator, ACT domain; co-substrates Ac-CoA and AmiAcs.

Substrate in the data set “purified protein”: CC(=O)SCCNC(=O)CCNC(=O)[C@H](O)C(C)(C)COP(=O)(O)OP(=O)(O)OC[C@H]1O[C@@H](n2cnc3c(N)ncnc32)[C@H](O)[C@@H]1OP(=O)(O)O
The data set is described as follows: purified protein. The class given is biochemical, Actinosynnema mirum. The following applies: co-substrate AmiAcs; no Cys.

T2 sequence (F2RA54 entry or part of it K112A): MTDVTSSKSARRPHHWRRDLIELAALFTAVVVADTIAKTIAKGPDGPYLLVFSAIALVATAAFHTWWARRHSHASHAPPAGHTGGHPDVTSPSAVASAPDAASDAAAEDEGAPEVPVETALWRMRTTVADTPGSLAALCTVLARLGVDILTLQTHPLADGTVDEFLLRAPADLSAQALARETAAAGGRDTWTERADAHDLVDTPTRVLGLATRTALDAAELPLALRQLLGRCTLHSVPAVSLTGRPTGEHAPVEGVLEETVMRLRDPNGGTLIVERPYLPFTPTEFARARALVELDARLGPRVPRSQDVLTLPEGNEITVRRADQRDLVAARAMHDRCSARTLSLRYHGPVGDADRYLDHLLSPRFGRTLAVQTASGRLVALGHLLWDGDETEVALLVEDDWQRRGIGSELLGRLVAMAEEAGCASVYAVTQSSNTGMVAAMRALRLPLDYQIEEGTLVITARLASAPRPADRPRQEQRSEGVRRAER

For the molecule `NC(=O)C[C@H](N)C(=O)O` [Asn], the “% of initial rate without Asn (2.23 to 3.92 nmol NADH per min/ml)” value on SvePatA [1] was found to be 176%. In addition, the activation still observed result at SvePatA [2] is reported as “Allosteric effect of Asn on SvePatA activity was still observed in two mutants K112A”.

With `N[C@@H](CS)C(=O)O` [Cys], at AmiPatA, the “% of initial rate without Cys (3.8 to 6.8 μM/min)” value came to 179%.

B1: AmiPatA (Actinosynnema mirum DSM 43827) (protein)
chain: T3 sequence (C6WC99 1-372)
notes: gene amplified from genomic DNA, pET-28a, E. coli BL21-DE3, purified; ACT-GNAT domains
Consider B1, for which, in the data set “purified protein”, the Km worked out at 5.5 ± 1.1 µM, the kcat was 0.19 ± 0.008 s⁻¹ and the kcat/Km came out at 36000 ± 8000 M⁻¹ s⁻¹.
